Laboratory results from ChEMBL document CHEMBL1127230, “New non-peptide angiotensin II receptor antagonists. 2: structure - activity relationship of a series of annelated 2(1H)-pyridinones” (Bioorg Med Chem Lett, 1994).

Assays:
[1] = biological target: Angiotensin II receptor (Homo sapiens) (UniProt P30556+P50052); assay: In vitro functional antagonistic affinity measured against angiotensin II receptor in paired rings of rabbit aorta; format: tissue-based; details: Oryctolagus cuniculus, target entry is the homologue from another species
[2] = biological target: T1, Type-1 angiotensin II receptor (Bos taurus, UniProt P25104); assay: Inhibition of [125I]AII binding to angiotensin II receptor of bovine adrenal cortex; format: tissue-based; details: read-out: EC50 (the source's name)
T1 sequence (P25104 whole entry): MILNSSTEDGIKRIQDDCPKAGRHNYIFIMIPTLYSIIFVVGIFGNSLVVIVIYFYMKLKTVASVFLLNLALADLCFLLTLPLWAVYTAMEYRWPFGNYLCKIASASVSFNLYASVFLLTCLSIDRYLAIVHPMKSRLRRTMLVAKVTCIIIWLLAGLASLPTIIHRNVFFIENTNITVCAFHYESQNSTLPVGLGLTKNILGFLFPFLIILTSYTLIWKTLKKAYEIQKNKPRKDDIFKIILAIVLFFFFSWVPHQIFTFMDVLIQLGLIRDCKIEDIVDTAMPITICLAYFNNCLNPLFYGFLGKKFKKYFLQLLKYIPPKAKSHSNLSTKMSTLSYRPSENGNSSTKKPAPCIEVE

Rattus norvegicus [3] = assay: In vivo potency determined as dose given iv to produce reduction in angiotensin II pressor response in normotensive rats; format: functional; details: read-out: ID50 (the source's name)
Rattus norvegicus [4] = assay: Tested for in vitro inhibition of specific binding of [125I]AII for bolus injection of 0.3 mg/kg lasting up to 90 min post dose; format: functional; details: 1.5 h

`CS(=O)(=O)c1ccc2c(O)c(-c3ccccc3)c(=O)n(Cc3ccc(-c4ccccc4-c4nn[nH]n4)cc3)c2c1` gave a pKB [1] of 5.9 and an IC50 [2] of ~30000 nM.
For `CCc1cc2c(O)c(-c3ccccc3)c(=O)n(Cc3ccc(-c4ccccc4-c4nn[nH]n4)cc3)c2s1`, the IC50 [2] was 90 nM and the ED50 (Rattus norvegicus [3]) was 5 mg/kg.
`COc1ccc2c(O)c(-c3ccccc3)c(=O)n(Cc3ccc(-c4ccccc4C(=O)O)cc3)c2c1` was tested, and the pKB [1] was 6.7 and the IC50 [2] was 9500 nM.
Molecule `CCOc1ccc2c(O)c(-c3ccccc3)c(=O)n(Cc3ccc(-c4ccccc4-c4nn[nH]n4)cc3)c2c1` has a pKB [1] of 7.1 and an ED50 (Rattus norvegicus [3]) of 1.3 mg/kg.
With `O=c1c(-c2ccccc2)c(O)c2c(n1Cc1ccc(-c3ccccc3-c3nn[nH]n3)cc1)CCC2` the pKB [1] was 7.2.
Molecule `O=c1c(Cc2ccccc2)c(O)c2ccccc2n1Cc1ccc(-c2ccccc2-c2nn[nH]n2)cc1` has a pKB [1] of 7.5.
`O=c1c(-c2ccccc2)c(O)c2ccc([N+](=O)[O-])cc2n1Cc1ccc(-c2ccccc2-c2nn[nH]n2)cc1` was tested, and the pKB [1] was 7.5.
Molecule `COc1ccc2c(O)cc(=O)n(Cc3ccc(-c4ccccc4C(=O)O)cc3)c2c1` has a pKB [1] of 6.3.
Work on `COc1ccc2c(O)c(C(C)=O)c(=O)n(Cc3ccc(-c4ccccc4C(=O)O)cc3)c2c1` yielded a pKB [1] of 6.6.
Work on `Cc1ccc2c(O)c(-c3ccccc3)c(=O)n(Cc3ccc(-c4ccccc4-c4nnn[nH]4)cc3)c2n1` yielded an IC50 [2] of 1250 nM.
For `CCOc1ccc2c(O)c(Cc3ccccc3)c(=O)n(Cc3ccc(-c4ccccc4C(=O)O)cc3)c2c1`, the pKB [1] was 7.8.
`CCCCc1c(O)c2ccc(OC)cc2n(Cc2ccc(-c3ccccc3C(=O)O)cc2)c1=O` was tested, and the pKB [1] was 6.6.
With `Cc1ccc2c(O)c(-c3ccccc3)c(=O)n(Cc3ccc(-c4ccccc4-c4nn[nH]n4)cc3)c2n1` the pKB [1] was 7.
For `O=c1c(-c2ccccc2)c(O)c2sccc2n1Cc1ccc(-c2ccccc2-c2nn[nH]n2)cc1`, the pKB [1] was 7.4, the IC50 [2] was 6000 nM and the ED50 (Rattus norvegicus [3]) was 3.2 mg/kg.
Work on `CCCc1cc2ncnc-2c(O)n1Cc1ccc(-c2ccccc2-c2nn[nH]n2)cc1` yielded a pKB [1] of 9.1 and an ED50 (Rattus norvegicus [3]) of 0.18 mg/kg.
Molecule `CCOc1ccc2c(O)cc(=O)n(Cc3ccc(-c4ccccc4-c4nn[nH]n4)cc3)c2c1` has a pKB [1] of 8.9.
`CCOc1ccc2c(O)c(-c3ccccc3)c(=O)n(Cc3ccc(-c4ccccc4-c4nnn[nH]4)cc3)c2c1` showed an IC50 [2] of 500 nM.
`CCCc1cc2c(ncn2C)c(=O)n1Cc1ccc(-c2ccccc2-c2nn[nH]n2)cc1` gave a pKB [1] of 7.6.
Work on `COc1ccc2c(O)cc(=O)n(Cc3ccc(-c4ccccc4-c4nn[nH]n4)cc3)c2c1` yielded a pKB [1] of 8.3 and an ED50 (Rattus norvegicus [3]) of 1.08 mg/kg.
Work on `O=c1c(-c2ccccc2)c(O)c2ccccc2n1Cc1ccc(-c2ccccc2-c2nn[nH]n2)cc1` yielded a pKB [1] of 7.2, an IC50 [2] of 1700 nM and an ED50 (Rattus norvegicus [3]) of 1.2 mg/kg.
`CCc1ccc2c(O)c(-c3ccccc3)c(=O)n(Cc3ccc(-c4ccccc4C(=O)O)cc3)c2c1` gave a pKB [1] of 7.2.
With `CCCCc1nc(Cl)c(CO)n1Cc1ccc(-c2ccccc2C(=O)O)cc1` the pKB [1] was 7.1.
Molecule `COc1ccc2c(O)c(-c3ccccc3)c(=O)n(Cc3ccc(-c4ccccc4-c4nnn[nH]4)cc3)c2c1` has an IC50 [2] of 2200 nM.
For `CCCCc1nc(Cl)c(CO)n1Cc1ccc(-c2ccccc2-c2nnn[nH]2)cc1` [LOSARTAN], the pKB [1] was 8.3 and the ED50 (Rattus norvegicus [3]) was 1.2 mg/kg.
Molecule `O=c1c(-c2ccccc2)c(O)c2c(n1Cc1ccc(-c3ccccc3-c3nnn[nH]3)cc1)CCC2` has an IC50 [2] of 1250 nM.
Work on `COc1ccc2c(O)c(-c3ccccc3)c(=O)n(Cc3ccc(-c4ccccc4-c4nn[nH]n4)cc3)c2c1` yielded a pKB [1] of 7.4 and an ED50 (Rattus norvegicus [3]) of 2.5 mg/kg.
For `CCCc1cc2nc(O)nc-2c(O)n1Cc1ccc(-c2ccccc2-c2nn[nH]n2)cc1`, the pKB [1] was 6.4.
Molecule `CCOc1ccc2c(O)c(-c3ccccc3)c(=O)n(Cc3ccc(-c4ccccc4C(=O)O)cc3)c2c1` has a pKB [1] of 7.7 and an IC50 [2] of 1800 nM.
`CCc1cc2c(O)cc(=O)n(Cc3ccc(-c4ccccc4-c4nn[nH]n4)cc3)c2s1` showed a pKB [1] of 9.6.
Work on `CSc1ccc2c(O)c(-c3ccccc3)c(=O)n(Cc3ccc(-c4ccccc4-c4nn[nH]n4)cc3)c2c1` yielded a pKB [1] of 6.6 and an IC50 [2] of 600 nM.
In the case of `CCCc1cc2ncn(C)c2c(=O)n1Cc1ccc(-c2ccccc2-c2nn[nH]n2)cc1`, the pKB [1] is reported as 10.2, the inhibition in vivo at 0.3 mg/kg (Rattus norvegicus [4]) is reported as > 50% and the ED50 (Rattus norvegicus [3]) is reported as < 0.3 mg/kg.
